Active and inactive are the calls of the source.

Here are results for 18 compounds from ChEMBL document CHEMBL1201862, “PubChem BioAssay data set” (2004).

Assay [1] is described as follows: blockers of HIV-1 envelope-mediated cell-cell fusion – cherry-pick, dose response (AID 652057). Format: functional, cell-based.
Assay [2] can be described thus: blockers of HIV-1 ZM109 envelope-driven cell-cell fusion – HeLa effector, CEM target cells, luciferase, cherry-pick, dose response (AID 652058).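 Also: luciferase signal from HIV-1 Env mediated cell-cell fusion of effector and target cells.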 The class given is functional, cell-based.
Assay [3] is described as follows: off-target signal loss in HeLa-CEM21 co-culture – HeLa F-luc CTL cells, cherry-picked, counter-screen for HIV-1 Env fusion inhibitor project, dose response (AID 652040).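 Also: potency for signal decrease marking cytotoxic or nonspecific inhibition.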 The class given is functional, cell-based. A general note: The purpose of a counterscreen is to sort out artefacts and off-target activity.
A short description of assay [4]: HIV-1 AD8 envelope cell-cell fusion blockers – cherry-pick, dose response (AID 652062).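 Also: luciferase signal from cell-cell fusion driven by HIV-1 clade B AD8 Env; potency is for inhibitors of fusion seen as a drop in luminescence.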 The class given is functional, cell-based.
The subject of assay [5] is Streptococcus sp. 'group A'. Description: Streptococcus pyogenes SK(-)GAS viability under kanamycin – luminescence, BacTiterGlo, confirmation, counter-screen for streptokinase expression inhibitor project, dose response (AID 1900). The class given is functional, organism-based.
In the next assay the target is T1, Streptokinase A (Streptococcus pyogenes serotype M1, UniProt P10520).
T1 sequence (P10520 whole entry): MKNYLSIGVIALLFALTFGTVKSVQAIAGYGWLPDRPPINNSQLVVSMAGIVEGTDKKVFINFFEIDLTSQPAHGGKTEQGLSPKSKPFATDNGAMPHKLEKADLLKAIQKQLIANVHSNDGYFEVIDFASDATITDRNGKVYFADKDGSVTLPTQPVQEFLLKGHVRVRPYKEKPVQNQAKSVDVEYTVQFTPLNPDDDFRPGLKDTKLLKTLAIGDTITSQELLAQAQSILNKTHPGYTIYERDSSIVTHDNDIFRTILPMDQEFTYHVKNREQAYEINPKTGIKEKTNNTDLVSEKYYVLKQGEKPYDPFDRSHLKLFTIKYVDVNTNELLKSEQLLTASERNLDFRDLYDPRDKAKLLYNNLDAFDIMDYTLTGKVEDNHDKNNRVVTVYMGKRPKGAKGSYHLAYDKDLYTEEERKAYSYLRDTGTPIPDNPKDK
Description: viability-normalized secreted streptokinase activity reduction – plasminogen activation absorbance, OD405, dose response (AID 1914).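 Also: secreted streptokinase activity via plasminogen activation per viability signal from cell pellet.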 The class given is functional, Streptococcus pyogenes M1 GAS.

Another assay has as its system Streptococcus. Description: GAS UMAA2166 growth inhibition – luminescence, BacTiterGlo, counter-screen for streptokinase expression inhibitor project, dose response (AID 1915).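 Also: potency for reduction of bacterial viability or growth.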 The class given is functional, organism-based.
In assay [6] the target is T2, Carboxy-terminal domain RNA polymerase II polypeptide A small phosphatase 1 (Homo sapiens, UniProt Q9GZU7).
T2 sequence (Q9GZU7 whole entry): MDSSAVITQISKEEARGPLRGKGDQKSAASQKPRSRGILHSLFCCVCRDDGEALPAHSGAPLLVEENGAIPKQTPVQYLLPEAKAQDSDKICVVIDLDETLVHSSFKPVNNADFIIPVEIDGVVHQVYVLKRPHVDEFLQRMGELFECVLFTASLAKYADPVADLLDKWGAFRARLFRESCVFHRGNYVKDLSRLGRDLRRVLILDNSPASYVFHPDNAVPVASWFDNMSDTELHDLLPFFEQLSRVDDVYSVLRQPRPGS
Description: CTDSP1 inhibitors, concentration-response, biochemical, absorbance readout, ultra-high-throughput screen actives (AID 540297). Format: functional.

For the next assay, the target named is Paired box protein Pax-8 (Homo sapiens, UniProt Q06710). Description: PAX8 transcriptional activity inhibition in RMG-I – RMG-I cells, luciferase, cherry-pick, dose response (AID 687027).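 Also: luciferase reporter driven by Pax8 target thyroperoxidase promoter measured by SteadyGlo luminescence.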 Format: functional, cell-based.
Assay [7] is described as follows: OVCAR8 cell viability loss – plate reader, dry powder samples, PAX8 project, dose response (AID 743197). Format: functional, cell-based. The following applies: OVCAR-8.
Assay [8] is described as follows: A Cell Based Secondary Assay To Explore Cytotoxicity of Compounds that Sensitize Mycobacterium Tuberculosis to Beta-Lactam Antibiotics. Format: functional.
In another assay the target is T3, Cysteine protease ATG4B (Homo sapiens, UniProt Q9Y4P1).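 Also: Fluorescence-based dose-response confirmation assay measuring inhibition of ATG4B activity.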
T3 sequence (Q9Y4P1 whole entry): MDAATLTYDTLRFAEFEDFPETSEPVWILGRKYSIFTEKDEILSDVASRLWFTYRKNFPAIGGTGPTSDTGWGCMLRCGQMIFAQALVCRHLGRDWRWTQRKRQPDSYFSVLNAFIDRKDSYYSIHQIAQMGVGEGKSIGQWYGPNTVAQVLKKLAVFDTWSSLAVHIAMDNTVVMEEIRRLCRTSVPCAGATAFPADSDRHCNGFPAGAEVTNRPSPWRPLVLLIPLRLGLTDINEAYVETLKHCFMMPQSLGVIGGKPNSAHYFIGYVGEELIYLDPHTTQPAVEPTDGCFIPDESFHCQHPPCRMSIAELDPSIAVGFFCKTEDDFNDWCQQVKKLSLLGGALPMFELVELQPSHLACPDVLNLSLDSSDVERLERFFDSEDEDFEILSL
The class given is functional.

In another assay the target is Phospholipase A2 (Homo sapiens, UniProt P04054). Format: functional.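 Also: confirmatory dose-response counterscreen on phospholipase A2, testing hits that came from an ultra-high-throughput screen for ATG4B inhibitors.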
Assay [9] addresses T4, Oxysterols receptor LXR-beta (Homo sapiens, UniProt P55055).
T4 sequence (P55055 whole entry): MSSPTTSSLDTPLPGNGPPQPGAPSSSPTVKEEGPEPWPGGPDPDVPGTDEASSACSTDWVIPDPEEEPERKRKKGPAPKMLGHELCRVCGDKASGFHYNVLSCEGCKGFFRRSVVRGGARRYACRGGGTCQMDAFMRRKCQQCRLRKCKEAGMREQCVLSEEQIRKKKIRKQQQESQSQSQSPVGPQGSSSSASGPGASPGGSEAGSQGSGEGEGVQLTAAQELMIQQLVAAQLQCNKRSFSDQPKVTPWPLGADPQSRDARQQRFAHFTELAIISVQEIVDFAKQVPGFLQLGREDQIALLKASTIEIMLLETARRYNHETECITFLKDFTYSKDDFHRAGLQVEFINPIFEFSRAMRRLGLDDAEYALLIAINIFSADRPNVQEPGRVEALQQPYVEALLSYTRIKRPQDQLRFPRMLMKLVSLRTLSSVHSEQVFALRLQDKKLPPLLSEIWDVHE
Format: functional, cell-based.

A short description of assay [10]: cells.
The target of the next assay is Genome polyprotein (dengue virus type 2, UniProt P29990). Description: flavivirus cap methylation enzyme inhibition – biochemical, confirmation dose response, primary screen (AID 588689). Format: functional.
The next assay addresses T5, Leucine aminopeptidase (Plasmodium falciparum 3D7, UniProt Q8IL11).
T5 sequence (Q8IL11 whole entry): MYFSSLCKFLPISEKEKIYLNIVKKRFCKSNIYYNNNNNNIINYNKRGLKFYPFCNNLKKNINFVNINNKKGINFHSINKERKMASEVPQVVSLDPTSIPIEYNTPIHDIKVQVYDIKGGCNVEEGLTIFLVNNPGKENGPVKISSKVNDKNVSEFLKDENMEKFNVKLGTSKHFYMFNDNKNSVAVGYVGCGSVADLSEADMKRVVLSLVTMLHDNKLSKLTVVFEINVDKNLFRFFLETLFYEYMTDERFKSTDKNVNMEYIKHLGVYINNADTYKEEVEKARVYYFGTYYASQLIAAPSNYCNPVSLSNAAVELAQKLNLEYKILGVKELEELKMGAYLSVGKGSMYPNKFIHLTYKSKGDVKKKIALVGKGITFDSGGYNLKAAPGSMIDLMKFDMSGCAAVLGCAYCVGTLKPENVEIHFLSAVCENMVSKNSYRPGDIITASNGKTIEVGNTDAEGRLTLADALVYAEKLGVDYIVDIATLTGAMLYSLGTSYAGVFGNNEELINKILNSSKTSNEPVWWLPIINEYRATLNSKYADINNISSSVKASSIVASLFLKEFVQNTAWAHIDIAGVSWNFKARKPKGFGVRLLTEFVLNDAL
Description: P. falciparum M17LAP inhibitors, primary screen, biochemical, fluorogenic H-Leu-NHMec substrate, 1536-well (AID 1619). The class given is functional.

A further assay deals with Large T antigen (Simian virus 40, UniProt P03070). Format: functional, Betapolyomavirus macacae.
Assay [11] deals with T6, Rac GTPase-activating protein 1 (Homo sapiens, UniProt Q9H0H5).
T6 sequence (Q9H0H5 whole entry): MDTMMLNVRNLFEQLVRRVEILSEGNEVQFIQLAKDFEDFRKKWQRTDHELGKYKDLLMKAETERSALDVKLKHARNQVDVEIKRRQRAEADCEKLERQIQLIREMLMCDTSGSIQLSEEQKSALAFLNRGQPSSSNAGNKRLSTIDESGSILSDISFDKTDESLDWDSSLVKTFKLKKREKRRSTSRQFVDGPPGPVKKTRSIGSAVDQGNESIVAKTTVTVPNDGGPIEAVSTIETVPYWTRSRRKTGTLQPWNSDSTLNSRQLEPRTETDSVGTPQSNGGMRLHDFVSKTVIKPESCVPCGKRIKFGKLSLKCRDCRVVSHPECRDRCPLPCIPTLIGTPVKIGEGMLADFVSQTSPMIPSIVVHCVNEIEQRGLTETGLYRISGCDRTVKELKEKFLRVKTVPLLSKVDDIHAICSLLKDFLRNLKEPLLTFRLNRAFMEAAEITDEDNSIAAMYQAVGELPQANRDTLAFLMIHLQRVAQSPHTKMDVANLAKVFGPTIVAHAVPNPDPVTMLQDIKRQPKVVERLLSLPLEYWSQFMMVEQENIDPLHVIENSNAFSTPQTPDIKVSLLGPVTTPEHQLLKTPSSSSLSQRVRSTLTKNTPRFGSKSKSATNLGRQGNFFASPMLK
Description: blockers of MgcRacGAP-driven Rac1 GTP hydrolysis – biochemical, ADP Hunter fluorescence, primary and confirmatory, confirmation (AID 624330). The class given is functional.

A short description of assay [12]: Trypanosoma cruzi growth suppression in host cells – NIH3T3 host cells, beta-gal luminescence, confirmation (AID 2044).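 Also: intracellular parasites grown in NIH/3T3 mouse fibroblasts as host cells; luminescent beta-galactosidase reporter signal from transgenic T. cruzi replicating inside host cells; inhibitors lower the luminescence signal.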 Format: functional, cell-based.
Assay [13] in a line: NIH3T3 cell viability loss – ATP luminescence, mouse fibroblasts, counter-screen, dose response (AID 2010).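 Also: cells exposed to compound for about 90 hours before reading.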 The class given is functional, cell-based.
A short description of assay [14]: cells. Format: functional.
For assay [15], the target named is Heat shock protein HSP 90-alpha (Homo sapiens, UniProt P07900). Format: functional, organism-based.

Sequence of Phospholipase A2 (P04054 whole entry): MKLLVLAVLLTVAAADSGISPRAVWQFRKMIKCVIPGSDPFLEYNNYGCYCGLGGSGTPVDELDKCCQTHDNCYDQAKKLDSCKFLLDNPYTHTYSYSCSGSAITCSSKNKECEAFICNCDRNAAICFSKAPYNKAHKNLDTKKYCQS
Sequence of Genome polyprotein (P29990 2492-3391 limits assumed): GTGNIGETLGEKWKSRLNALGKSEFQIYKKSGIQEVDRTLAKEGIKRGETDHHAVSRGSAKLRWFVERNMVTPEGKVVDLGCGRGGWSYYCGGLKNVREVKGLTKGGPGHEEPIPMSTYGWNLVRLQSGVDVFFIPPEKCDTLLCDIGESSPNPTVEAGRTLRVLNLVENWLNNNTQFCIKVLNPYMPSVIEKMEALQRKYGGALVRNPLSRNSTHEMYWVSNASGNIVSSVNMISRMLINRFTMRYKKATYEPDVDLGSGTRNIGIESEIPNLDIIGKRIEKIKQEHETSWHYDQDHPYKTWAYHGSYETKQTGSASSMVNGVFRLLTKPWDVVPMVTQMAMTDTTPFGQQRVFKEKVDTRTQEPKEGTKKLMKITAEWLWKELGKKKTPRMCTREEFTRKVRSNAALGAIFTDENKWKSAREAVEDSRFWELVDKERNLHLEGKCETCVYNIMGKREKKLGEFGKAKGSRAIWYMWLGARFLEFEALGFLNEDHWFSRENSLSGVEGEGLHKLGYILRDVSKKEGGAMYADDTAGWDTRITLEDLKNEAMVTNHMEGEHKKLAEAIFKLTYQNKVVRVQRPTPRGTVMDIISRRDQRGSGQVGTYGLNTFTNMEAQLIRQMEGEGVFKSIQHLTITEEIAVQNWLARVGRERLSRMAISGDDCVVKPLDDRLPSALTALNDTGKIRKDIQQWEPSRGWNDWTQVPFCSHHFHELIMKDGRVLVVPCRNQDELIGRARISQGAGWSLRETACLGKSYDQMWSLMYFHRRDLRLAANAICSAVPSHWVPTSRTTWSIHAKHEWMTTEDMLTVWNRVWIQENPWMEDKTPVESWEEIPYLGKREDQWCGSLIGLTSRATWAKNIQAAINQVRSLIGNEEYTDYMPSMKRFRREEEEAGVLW
Sequence of Paired box protein Pax-8 (Q06710 whole entry): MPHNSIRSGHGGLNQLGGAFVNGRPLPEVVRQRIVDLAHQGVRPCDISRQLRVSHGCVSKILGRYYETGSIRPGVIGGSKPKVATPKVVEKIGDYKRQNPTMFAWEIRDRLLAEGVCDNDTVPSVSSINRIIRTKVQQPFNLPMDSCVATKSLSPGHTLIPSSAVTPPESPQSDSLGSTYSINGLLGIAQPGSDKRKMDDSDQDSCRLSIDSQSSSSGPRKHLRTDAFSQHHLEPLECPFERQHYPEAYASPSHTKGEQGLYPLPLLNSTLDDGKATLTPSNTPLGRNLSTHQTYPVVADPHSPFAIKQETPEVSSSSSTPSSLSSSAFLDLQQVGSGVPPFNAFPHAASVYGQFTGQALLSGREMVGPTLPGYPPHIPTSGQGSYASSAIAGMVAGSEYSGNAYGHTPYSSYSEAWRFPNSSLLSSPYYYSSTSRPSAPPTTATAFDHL
Sequence of Large T antigen (P03070 whole entry): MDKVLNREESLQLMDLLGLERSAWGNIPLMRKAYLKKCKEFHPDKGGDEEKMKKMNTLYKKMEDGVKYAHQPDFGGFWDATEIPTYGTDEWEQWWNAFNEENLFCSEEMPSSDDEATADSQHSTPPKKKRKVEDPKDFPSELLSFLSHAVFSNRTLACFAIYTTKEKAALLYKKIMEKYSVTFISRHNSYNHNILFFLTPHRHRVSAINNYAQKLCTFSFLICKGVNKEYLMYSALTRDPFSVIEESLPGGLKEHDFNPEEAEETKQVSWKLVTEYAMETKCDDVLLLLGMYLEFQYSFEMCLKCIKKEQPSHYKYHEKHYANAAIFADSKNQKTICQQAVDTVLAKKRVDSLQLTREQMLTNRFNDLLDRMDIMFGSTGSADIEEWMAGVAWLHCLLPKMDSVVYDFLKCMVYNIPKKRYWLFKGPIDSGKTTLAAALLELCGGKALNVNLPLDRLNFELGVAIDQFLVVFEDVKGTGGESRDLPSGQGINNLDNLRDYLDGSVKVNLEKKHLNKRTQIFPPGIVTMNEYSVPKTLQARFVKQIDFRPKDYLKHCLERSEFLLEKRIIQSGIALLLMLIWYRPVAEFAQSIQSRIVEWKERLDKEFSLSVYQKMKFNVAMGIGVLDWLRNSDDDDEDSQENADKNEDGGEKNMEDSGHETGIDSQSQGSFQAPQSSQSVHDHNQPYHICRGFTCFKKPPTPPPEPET

As to `Cc1cccc(N2C(=O)N3[C@H](c4ccc(Br)cc4)[C@@H]4C(=O)N(C(C)(C)C)C(=O)[C@@H]4[C@]3(C)C2=O)c1`, the AC50 (as a rule, the concentration giving half of the maximal activity seen) was 0.48 µM (active) in assay [1], 0.746 µM (active) in assay [2], 0.936 µM (active) in [3] and 1.69 µM (active) in [4].
For `CCC[N+]1(CC#CC2(O)CCCCC2)CCOCC1`, the EC50 (in assay [5]; at Streptokinase A; with Streptococcus) was > 150 µM (not active) throughout. In addition, the IC50 (usually the midpoint of a concentration-inhibition curve) in [6] was 5.44 µM (active).
With `C=CCN([C@@H](CC(C)C)C(=O)OC)S(=O)(=O)N(CC=C)[C@@H](CC(C)C)C(=O)OC`, the concentration at half-maximal activity (AC50) was 6.72 µM (active) in assay [1], 24.7 µM (active) in [2], 21 µM (active) in assay [3] and 25.9 µM (active) in [4].
`C[C@@H]1CCCCO[C@H](CN(C)Cc2ccc3c(c2)OCO3)[C@@H](C)CN([C@@H](C)CO)C(=O)c2cc(NS(=O)(=O)c3ccc(Cl)cc3)ccc2O1`: the AC50 on Paired box protein Pax-8 is 9.45 µM (active); in [7], > 70 µM (inactive).
For `COc1ccccc1[C@@H]1C(c2ccc(F)cc2)=NN(c2ccccc2)[C@H]1C(=O)N1CCOC1=O`, the AC50 in [1] was 3.59 µM (active); in assay [2], 7.77 µM (active); in assay [3] it was 7.61 µM (active); in [4], 12.6 µM (active).
Regarding `COCc1cc(O)n2ncc(-c3ccccc3)c2n1`, in assay [8], the CC50 – broadly, the concentration that lowers cell viability or growth by half – is > 40 µM (active).
With `COc1ccc(Cn2c(C)nc3c(c(=O)c4ccccc4n3C)c2=O)cc1`, the CC50 in [8] was > 40 µM (active).
In the case of `COc1cc(NS(=O)(=O)c2ccc(Nc3nc(-c4cccc([N+](=O)[O-])c4)cs3)cc2)nc(OC)n1`, the 50% inhibitory concentration (IC50) at Cysteine protease ATG4B is 11.3 µM (active); on Phospholipase A2, 9.57 µM (active).
`O=C(COc1ccccc1Cl)Nc1ccc(Cl)cn1`: the EC50 (in assay [9]; in the assay “cells [10]”) was > 67.5 µM (inactive) throughout.
Turning to `Cc1sc2nc(C(C)C)nc(SCC(=O)NCc3ccco3)c2c1C`, the IC50 on Cysteine protease ATG4B is 11.1 µM (active); at Phospholipase A2, 5.93 µM (active).
On to `CCOc1cc(/C=C2/SC(=S)N(CC(=O)O)C2=O)ccc1OC(=O)c1cccs1`, for which the concentration for half-maximal inhibition (IC50) on Genome polyprotein was 56.3 µM (active).
Turning to `O=c1nc2n(c(O)c1C(c1ccc(O)cc1)c1c(O)nc3n(c1=O)CCS3)CCS2` (stereo not drawn), at Genome polyprotein, the IC50 was 48.5 µM (active).
With `C[C@H](CO)N1C[C@H](C)[C@H](CN(C)Cc2ccc(-c3ccccc3)cc2)Oc2ccc(NS(=O)(=O)c3ccc(F)cc3)cc2CC1=O`, the AC50 was 27.1 µM (active) on Paired box protein Pax-8 and > 70 µM (inactive) in [7].
As to `Cn1nc(-c2ccc(OCC(=O)NCC3CCCO3)cc2)c2ccccc2c1=O` (stereo not drawn), the CC50 in [8] is > 40 µM (active).
On to `C/C(=N\Nc1nc2ccccc2s1)c1cccs1`, for which the EC50 (in [9]; in “cells [10]”) was > 67.5 µM (inactive) in each case.
In the case of `CCOC(=O)c1c(NC=C2C(=O)CC(C)(C)CC2=O)sc(C)c1C`, the IC50 on Cysteine protease ATG4B is 5.45 µM (active); at Phospholipase A2, 5.12 µM (active).
`COc1ccc2c(c1)c(C(=O)N/N=C/c1ccc(O)c(O)c1)c(C)n2C`: the figures for the IC50 (on Leucine aminopeptidase; on Large T antigen; in assay [11]) were 29.7 µM (active), 16.7 µM (active) and 23.5 µM (active), respectively.
On to `COc1ccc(OC)c(N2C(=O)NC(=O)/C(=C/c3ccc([N+](=O)[O-])s3)C2=O)c1`, for which the EC50 (in general, the concentration that produces a half-maximal response) in assay [12] is 2.1 µM (active); in [13], > 60 µM (inconclusive). The IC50 in the assay “cells [14]” was 23.7 µM (active); at Genome polyprotein, 18.8 µM (active). The AC50 in [15] is 3.06 µM (active).
